Measurements from patent publication US20210062263A1, “A CLINICAL […]” (priority 2016, published 2021).

Key:
Type in all cases: in vivo, mice
[1] = system: dorsal skin wound; experiment: Macroscopic evaluation of dorsal skin wounds
Protocol: (§1) Implants were prepared by cutting medical grade Silastic (polydimethylsiloxane) tubing (1.5 mm inner diameter, 2.3 mm outer diameter, Aunet Pty Ltd, WA, Australia) to the desired length (1 cm long) and sealing one end with Multi-Purpose Sealant (Dow Corning RTV Sealant). After 24 hours each tube was packed with either crystalline testosterone (Sigma #T-1500) or left empty (vehicle implant). The open end was then sealed and implants were allowed to dry for at least 24 hours prior to surgical implantation. The implant size was considered to be the length of tubing containing testosterone. Prior to subcutaneous insertion, implants were sterilized in absolute ethanol for 10 minutes which also removed any androgen adhering to its external surface. Each testosterone or vehicle implant was inserted subcutaneously via a 5-mm nape incision in intact and castrated male mice three weeks before the wound healing experiments and the incision site was closed with 5/0 sutures.
Under anesthesia, the dorsal flanks of each 9 weeks old mouse (n=6/group) were carefully shaved and cleansed with 70% v/v ethanol. To create wounds, full-thickness, parasagittal linear incisions (1 cm long) were made through the skin and underlying the panniculus carnosus muscle on each flank and each wound was closed using two 5/0 silk sutures placed 3 mm from each end of the wound. […] Incisions were examined and assessed on days 3, 5, 7 and post-wounding.
Digital images of each dorsal skin wound were obtained with a standardized focal distance, aperture and exposure time using a Nikon D5000 camera (Nikon, Tokyo, Japan) immediately after the initial incision and at 3, 5, 7 and 14 days post-wounding. Wound areas were measured within the wound margins and the pixel areas were calculated using Adobe Photoshop CS5 (version 12.0, Adobe Systems Inc). The area of erythema was measured in all groups at 3 days and 5 days post-wounding and the area of the wound was measured in all groups at all time-points.

[2] = system: IL-6; experiment: Cutaneous IL-6 levels (ELISA) after wounding
Protocol: (§2) Frozen samples of wounded and unwounded skin were homogenized (Janke & Kunkel Ultraturrax T25 homogenizer, IKA Labortechnik, Staufen, Germany) in 1% v/v protease inhibitor (Calbiochem, San Diego, Calif.) and the homogenates were centrifuged at 4° C. to remove debris prior to assay.
(§3) Cutaneous levels of IL-6 and TNF-α were measured in skin samples using ELISAs according to the manufacturer's instructions (R&D Systems Inc, MN, USA). The sensitivity of the IL-6 ELISA was 5.97 pg/ml; the intra-assay variation was of 3.4% and the inter-assay variation was 4.1%. Mouse recombinant was used as a standard for the TNF-α assay; the sensitivity of the ELISA was 9.04 pg/ml; the intra-assay variation was of 12.8% and the inter-assay variation was 12.7%. The concentrations are expressed per mg of tissue (wet weight).

[3] = system: TNF-α; experiment: Cutaneous TNF-α levels (ELISA) after wounding
Protocol: as §2, §3

[4] = system: follistatin; experiment: Cutaneous follistatin levels (RIA) after wounding
Source text: (§4) Under anesthesia, the dorsal flanks of each 9 weeks old mouse (n=6/group) were carefully shaved and cleansed with 70% v/v ethanol. To create wounds, full-thickness, parasagittal linear incisions (1 cm long) were made through the skin and underlying the panniculus carnosus muscle on each flank and each wound was closed using two 5/0 silk sutures placed 3 mm from each end of the wound. Post operatively, all animals received analgesia to minimize pain, were allowed to recover on a heated pad and then housed in groups of four animals per cage. Incisions were examined and assessed on days 3, 5, 7 and post-wounding.
Following exsanguination, anesthetized animals were killed by cervical dislocation. Full-thickness specimens of the skin wound, consisting of the entire wound scar surrounded by a border of about 3-mm, were excized and bisected. Half of each sample was frozen at −80° C. and the other half was fixed in 4% v/v paraformaldehyde (Sigma-Aldrich, NSW, Australia) and processed for histology. Unwounded skin was obtained from the dorsum of the trunk near the tail of each animal to determine protein levels. […]
Serum and skin follistatin levels were measured by RIA using human recombinant follistatin 288 as standard and as tracer following labeling with I^125 (O'Conner et al. (1999) Hum Reprod 14(3):827-832). […]

[5] = Reproductive organ weights (seminal vesicle, epididymis); settings: castrated males, testosterone replacement
Source text: Six week-old male mice were castrated under anesthesia three weeks prior to the studies on wound healing. The testes were gently pushed through the inguinal canal into the abdominal cavity and exposed through a small (0.5 cm) ventral midline abdominal incision. Each testis was gently dissected from its epididymis and removed after ligation of the testicular vasculature. All incisions were closed using two interrupted 5/0 silk sutures (Johnson & Johnson Medical, NSW, Australia).
as §1, with “Each testosterone or vehicle implant was inserted subcutaneously via a 5-mm nape incision in intact and castrated male mice three weeks before the wound healing experiments and the incision site was closed with 5/0 sutures.” left out

[6] = system: dorsal skin wound; experiment: Histopathological measurements of skin wounds
Protocol: as §1, §4
Following exsanguination, anesthetized animals were killed by cervical dislocation. Full-thickness specimens of the skin wound, consisting of the entire wound scar surrounded by a border of about 3-mm, were excized and bisected. Half of each sample was frozen at −80° C. and the other half was fixed in 4% v/v paraformaldehyde (Sigma-Aldrich, NSW, Australia) and processed for histology. Unwounded skin was obtained from the dorsum of the trunk near the tail of each animal to determine protein levels.
Transverse histological sections (5 μm) of skin from the center of each wound were stained with hematoxylin and eosin (H&E) [Harris' Hematoxylin, 1% v/v Eosin, Amber Scientific, Midvale, Wash., Australia] and analyzed by light microscopy. All histological analyses were performed blind without knowledge of the identity of each specimen. Histological sections were scanned for assessment using Aperio ScanScope AT Turbo Scanner (Aperio, CA, USA) and the electronic slides (eSlides) were visualized and analyzed using Aperio ImageScope.
Wound width was calculated by measuring the distance between the unwounded dermis margins at the epidermis-dermis junction (Gilliver et al. (2008) endocrinology 149(11):5747-5757). When the width was <0.2 mm, the wound was considered closed. Reepithelialization was assessed using the following scoring method: 0, absent; 1, present, covering <50% of the wound; 2, present, covering >50% and <100% of the wound; 3, present, covering 100% with irregular thickness; 4, present, covering 100% with regular thickness (Steed et al. (1997) 77(3):575-586). To determine epidermal hyperplasia, the mean distance between the stratum granulosum and the epidermal-dermal junction of each wound site was calculated (10 measurements per section, using a 10× objective). Unwounded skin was used as control.
Sections from day 7 and day 14 wounds were also stained with Masson's trichrome to highlight connective tissue. The area of granulation tissue was measured by defining the area located between the basal surface of the epidermis and the panniculus carnosus below. Collagen orientation was assessed using the following scoring method: 1, basket-weave fibers; 2, basket-weave >parallel fibers; 3, parallel fibers >basket-weave fibers; 4, parallel fibers (Ashcroft and Mills (2002) J Clin Invest 110(5):615-624).

C[C@]12CC[C@H]3[C@@H](CCC4=CC(=O)CC[C@@]43C)[C@@H]1CC[C@@H]2O [testosterone]
wound area ([1]; castrated animals treated with testosterone vs vehicle, days 3 and 5 post-wounding): increased wound area | scabs on wound surface ([1]; castrated males, testosterone replaced): scabs were observed at both days 3 and 5 | area of erythema ([1]; castrated+T males, day 3 post-wounding): 0.42±0.03 cm2 | cutaneous IL-6 relative to castrated group ([2]; castrated males, testosterone replacement, day 3 post-wounding): twice | cutaneous IL-6 relative to intact male group ([2]; intact males treated with testosterone, day 3 post-wounding): almost twice | basal IL-6 levels in skin ([2]; intact males treated with testosterone, unwounded skin): increased basal IL-6 levels | TNF-α skin levels ([3]; castrated males, testosterone replaced vs castrated males, days 5 and 7): significantly higher | TNF-α skin levels ([3]; castrated males, testosterone replaced, day 7 post-wounding): significantly increased | TNF-α skin levels ([3]; intact males given testosterone vs intact group, day 3 post-wounding): significantly increased | follistatin levels in skin ([4]; castrated testosterone replacement group vs vehicle group, day 3 post-wounding): significantly higher | follistatin levels in skin ([4]; intact males given testosterone vs intact males that received vehicle): significantly lower | size and weight of the epididymis [5]: 0.05±0.02 | size and weight of the seminal vesicle [5]: 0.42±0.02 | collagen fiber orientation ([6]; castrated males treated with testosterone, day 14 post-wounding): predominant parallel orientation | wound width ([6]; castrated males, testosterone replacement vs castrated group, days 3 and 5 post-wounding): significantly increased wound widths | re-epithelialization ([6]; castrated+T group, day 5 post-wounding): re-epithelialization was complete | epidermal thickness ([6]; castrated+T group, days 3, 5 and 7 post-wounding): increased thickness of the epidermis | wound width ([6]; intact males treated with testosterone vs intact group, day 3 post-wounding): decreased wound width | wound closure (summary) ([6]; male mice): delayed wound closure
